# Reference: patent US20140004182A1, “METHODS FOR THE TREATMENT OF SARCOIDOSIS” (priority 2009, published 2014)
# Assays:
# [1] = test system: sarcoidosis patients with chronic cutaneous lesions despite systemic therapy; assay: Open label clinical study, Sarcoidosis Activity and Severity Index (SASI); format: in vivo, human; settings: for SASI induration score, median (range): 43 areas with induration, baseline median 2 (0-4), p<0.005, scale 0 to 4
# Description: An open label study of sarcoidosis patients with chronic cutaneous lesions despite systemic therapy was performed to determine the safety and efficacy of (+)-2-[1-(3-ethoxy-4-methoxyphenyl)-2-methanesulfonylethyl]-4-acetylaminoisoindolin-1,3-dione therapy. Patients were on a stable treatment regimen (corticosteroids, methotrexate (max 10 mg/week), azathioprine, hydroxychloroquine, cyclophosphamide, minocycline, doxycycline, chloroquine) for at least three months prior to study entry. Patients were assessed by a previously validated scoring system for cutaneous sarcoidosis: Sarcoidosis Activity and Severity Index (SASI). Individual scores were made for erythema, induration, and desquamation on a scale of 0 to 4. For an individual area of the body, the percentage of involvement for sarcoidosis lesions was scored on a scale from 0 to 7. After establishing a baseline SASI score, patients began treatment with (+)-2-[1-(3-ethoxy-4-methoxyphenyl)-2-methanesulfonylethyl]-4-acetylaminoisoindolin-1,3-dione 20 mg twice a day over the next 12 weeks. A SASI score was determined by the same investigator at baseline and weeks 4 and 12 of treatment.
# Thirteen patients completed 16 weeks of study, including 12 weeks of active drug therapy. […] Among the 13 patients, there were 59 areas with one or more positive SASI feature during treatment. Among the 43 areas with induration, there was a significant drop in the SASI score from baseline (median 2 (0-4)) after 4 weeks (median 1 (0-3), p<0.005) and 12 weeks (median 1 (0-3), p<0.005) therapy.
# [2] = test system: Phosphodiesterase 4 enzyme purified from U937 human monocytic cells; assay: Inhibition of PDE4 (phosphodiesterase reaction with [3H]-cAMP); format: biochemical; settings: 1 μM cAMP plus 10 nM [3H]-cAMP, 45 min at 30° C., pH 7.5
# Description: Phosphodiesterase 4 enzyme was purified from U937 human monocytic cells by gel filtration chromatography, and phosphodiesterase reactions were carried out as previously described. See, e.g., Muller et al., Bioorg. Med. Chem. Lett., 1998, 8(19): 2669-2674. Briefly, reactions were carried out in 96-well deep-well plates in 50 mM Tris HCl pH 7.5, 5 mM MgCl2, 1 μM cyclic adenosine monophosphate (cAMP), plus 10 nM [^3H]-cAMP for 45 min at 30° C. The reactions were terminated by boiling, treated with 1 mg/ml snake venom, and separated using AG-1X8 ion exchange resin (BioRad). Reactions consumed less than 15% of available substrate.
compound,measurement,setting,value
"CCOc1cc([C@@H](CS(C)(=O)=O)N2C(=O)c3cccc(NC(C)=O)c3C2=O)ccc1OC [(+)-2-[1-(3-ethoxy-4-methoxyphenyl)-2-methanesulfonylethyl]-4-acetylaminoisoindolin-1,3-dione]",change in SASI area of involvement during therapy,"[1]; 20 mg twice a day, 12 weeks",no significant change
same,change in SASI desquamation during therapy,"[1]; 20 mg twice a day, 12 weeks",no significant change
same,change in SASI erythema during therapy,"[1]; 20 mg twice a day, 12 weeks",no significant change
same,tolerability,"[1]; 20 mg twice a day, 12 weeks, 13 patients",well tolerated
same,discontinuation of drug treatment,"[1]; 13 patients, 12 weeks of active drug therapy",No patient discontinued
same,"SASI induration score, median (range)","[1]; after 4 weeks therapy, 20 mg twice a day",1 (0-3)
same,"SASI induration score, median (range)","[1]; after 12 weeks therapy, 20 mg twice a day",1 (0-3)
same,"patients with dose reduced by 50% (one for nausea, the other for feeling jittery)","[1]; of 13 patients, continued on the reduced dose",two
same,improvement in skin induration,[1]; within 4 weeks of institution of therapy,significant improvement
same,IC50,[2],0.0735 µM
